Data as given in patent US7928114B2, “Crystalline erlotinib” (Synthon BV, priority 2006, dated 2011).
Entries after “also recorded” stand apart in the source; their conditions may differ. Where a name gives a salt, the structure may show the parent alone.

Key:
TGA hygroscopicity = format: physicochemical
Text: TGA confirmed that Form II can be considered non-hygroscopic.

[1] = XRPD under non-ambient conditions (humidity / elevated temperature); format: physicochemical; settings: 30° C./10-90% RH and 50° C./75% RH
[2] = Relative thermodynamic stability of erlotinib free base crystal forms (prolonged stirring in 2-propanol; transitions on heating); format: physicochemical; settings: recrystallization from 2-propanol with prolonged stirring; Forms I and III convert to Form II on heating
Text: Recrystallization from 2-propanol may initially give Form II with a small amount of another Form. However, prolonged stirring results in pure Form II.
The hydrates of the invention can be converted into anhydrous forms and vice versa. For instance, any of the hydrates provides for the erlotinib free base Form II by heating.
The transition of hydrate Form I into Form II proceeds via melting of Form I after which the melt recrystallizes to Form II. The transition of Form III into Form II occurs via the solid-solid transformation.

[3] = WO 01/34574, WO 2004/072049; cited from earlier work
[4] = WO 2004/072049 (Form E vs Form B), WO 99/55683 (mesylate vs hydrochloride); cited from earlier work

In the case of `C#Cc1cccc(Nc2ncnc3cc(OCCOC)c(OCCOC)cc23)c1` [Form II, [6,7-bis(2-methoxyethoxy)-quinazolin-4-yl]-(3-ethynylphenyl)amine], the hygroscopicity (TGA hygroscopicity) is reported as “non-hygroscopic”, the “polymorphic transitions under humid conditions at elevated temperatures” value [1] is reported as “does not undergo polymorphic transitions” and the “thermodynamic stability relative to other free base forms” value [2] is reported as “thermodynamically more stable Form; also recorded: thermodynamically most stable form”.
For `C#Cc1cccc(Nc2ncnc3cc(OCCOC)c(OCCOC)cc23)c1` [Form B, erlotinib hydrochloride], the “stability relative to other erlotinib hydrochloride polymorphs” value [3] is listed as “thermodynamically more stable than Form A”.
For `C#Cc1cccc(Nc2ncnc3cc(OCCOC)c(OCCOC)cc23)c1` [Form E, erlotinib hydrochloride], the “solubility relative to comparator form/salt” value [4] is given as “higher solubility”.
For “erlotinib mesylate [mesylate salt of erlotinib]”, the “solubility relative to comparator form/salt” value [4] is listed as “enhanced solubility compared to the hydrochloride”.
